Results from ChEMBL document CHEMBL1130020, “Synthesis and characterization of technetium-99m-labeled tropanes as dopamine transporter-imaging agents” (J Med Chem, 1997).

Target: Sodium-dependent dopamine transporter (Rattus norvegicus, UniProt P23977)
Test: In vitro binding affinity to Dopamine transporter in rat striatal homogenates using [125I]IPT20 as the ligand

Sequence of Sodium-dependent dopamine transporter (P23977 whole entry, looked up): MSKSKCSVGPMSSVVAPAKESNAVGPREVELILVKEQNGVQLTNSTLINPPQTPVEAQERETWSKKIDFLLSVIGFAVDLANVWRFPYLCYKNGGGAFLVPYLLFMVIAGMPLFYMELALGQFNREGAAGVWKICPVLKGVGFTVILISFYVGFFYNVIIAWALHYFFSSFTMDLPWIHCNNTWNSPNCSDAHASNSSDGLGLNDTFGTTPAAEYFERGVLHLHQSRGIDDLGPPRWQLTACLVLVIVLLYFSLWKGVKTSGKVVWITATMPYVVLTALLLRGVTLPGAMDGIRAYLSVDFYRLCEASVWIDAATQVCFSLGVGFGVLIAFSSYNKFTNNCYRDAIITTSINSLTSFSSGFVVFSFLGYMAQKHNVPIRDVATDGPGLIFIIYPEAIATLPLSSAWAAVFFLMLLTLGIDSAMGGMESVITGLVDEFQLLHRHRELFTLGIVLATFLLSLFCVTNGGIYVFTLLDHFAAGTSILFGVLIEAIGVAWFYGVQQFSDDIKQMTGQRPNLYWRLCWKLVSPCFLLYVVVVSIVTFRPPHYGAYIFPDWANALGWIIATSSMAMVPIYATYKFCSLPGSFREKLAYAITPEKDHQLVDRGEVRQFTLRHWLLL

SMILES: CN1C2CCC1[C@@H](CN(CCS)CCNCCS)[C@@H](c1ccc(Cl)cc1)C2 (stereo partly specified)
- Ki: 7 nM
